Measured values as given in the OPERA property sets (Mansouri et al. 2018).
≈ marks a conversion by molar mass, not a printed value. Where a SMILES comes first, the peptide text is derived from it.

Details: not given

| Compound | solubility |
| --- | --- |
| CC(C)[C@@H]1NC(=O)CNC1=O | 128 mM (≈ 20000 µg/mL) |
| O=C1OCc2ccc3ccccc3c21 | 0.494 mM (≈ 91 µg/mL) |
| CCCCCc1ccc(O)cc1O | 11.1 mM (≈ 2000 µg/mL) |
| CCC(Br)(Br)C(=O)O | 134 mM (≈ 33000 µg/mL) |
| COCC(=O)c1ccccc1 | 173 mM (≈ 26000 µg/mL) |
| O=C(Cc1ccccc1)N[C@@H](CSSC[C@H](NC(=O)Cc1ccccc1)C(=O)O)C(=O)O | 14.7 mM (≈ 7000 µg/mL) |
| O=C(O)C(S)CS (stereo not drawn) | 579 mM (≈ 80000 µg/mL) |
| N[C@@H](Cc1cc([N+](=O)[O-])c(O)c([N+](=O)[O-])c1)C(=O)O | 30.7 mM (≈ 8330 µg/mL) |
| NC(=S)SCC(=O)O | 179 mM (≈ 27000 µg/mL) |
| CC(C)C=CCC(=O)O | 71 mM (≈ 9100 µg/mL) |
| CCC(Cl)(CC)C(N)=O | 93.6 mM (≈ 14000 µg/mL) |
| Oc1ccc(-c2ccccc2)cc1O | 8.59 mM (≈ 1600 µg/mL) |
| CC(=O)OCCCOC(C)=O | 624 mM (≈ 100000 µg/mL) |
| CC(C)[C@H](NC(=O)CN)C(=O)O (H-Gly-Val-OH) | 2870 mM (≈ 500000 µg/mL) |
| CCC1(CC(C)=O)C(=O)NC(=O)NC1=O | 171 mM (≈ 36400 µg/mL) |
| CCCSS(=O)CCC (stereo not drawn) | 120 mM (≈ 20000 µg/mL) |
| NC(=O)NCl | 2120 mM (≈ 200000 µg/mL) |
| CC(=O)C(=O)Nc1ccccc1 | 42.9 mM (≈ 7000 µg/mL) |

| Compound | solubility |
| --- | --- |
| CCC1OCCO1 | 1960 mM (≈ 200000 µg/mL) |
| CC1(O)CCC(C)(O)CC1 (stereo not drawn) | 243 mM (≈ 35000 µg/mL) |
| COc1ccc(NCC(O)CO)cc1 (stereo not drawn) | 507 mM (≈ 100000 µg/mL) |
| CCCOC(=O)C(C)(C)O | 684 mM (≈ 100000 µg/mL) |
| CC(C)(NC(=O)c1ccccc1)C(N)=O | 24.2 mM (≈ 5000 µg/mL) |
| C=CC(O)C(=O)OCC (stereo not drawn) | 2310 mM (≈ 300000 µg/mL) |
| CC(=O)c1ccc(O)c(C(=O)O)c1 | 5.88 mM (≈ 1060 µg/mL) |
| CC12CCC(CC1=O)C(C)(C)O2 (stereo not drawn) | 119 mM (≈ 20000 µg/mL) |
| CC1(C)CC(C(=O)O)C(C)(C)N1 (stereo not drawn) | 2920 mM (≈ 500000 µg/mL) |
| Cc1cc(N)n(-c2ccccc2)n1 | 115 mM (≈ 20000 µg/mL) |
| O=c1[nH]c(-c2ccccc2)ncc1Br | 0.332 mM (≈ 83.3 µg/mL) |
| O=C(Cc1ccccc1)c1ccc(O)cc1 | 31.6 mM (≈ 6700 µg/mL) |
| O=C(O)c1cc(=O)nc(-c2ccccc2)[nH]1 | 6.15 mM (≈ 1330 µg/mL) |
| NC(CO)C(=O)N[C@@H](CO)C(=O)O (stereo in doubt) | 260 mM (≈ 50000 µg/mL) |
| Cc1nc2c(c(=O)[nH]c(=O)n2C)n1C | 286 mM (≈ 55600 µg/mL) |
| CCOC(=O)c1c(C(=O)O)ccc(OC)c1OC | 5.58 mM (≈ 1420 µg/mL) |
| O=c1cc(Br)c2ccccc2o1 | 22.2 mM (≈ 5000 µg/mL) |

Same assay, conditions: 20 °C

| Compound | solubility |
| --- | --- |
| CN1c2ccccc2Sc2ccccc21 | 0.00255 mM (≈ 0.544 µg/mL) |
| N#Cc1cccc(N)c1 | 67.7 mM (≈ 8000 µg/mL) |
| CC(C)=NNC(N)=O | 540 mM (≈ 62200 µg/mL) |
| COc1c(C(=O)O)cc(C(=O)O)cc1C(=O)O | 29.1 mM (≈ 7000 µg/mL) |
| CCc1nc2ncnc(O)c2nc1CC | 12.2 mM (≈ 2500 µg/mL) |
| CCC(CC)COC(C)=O | 44.4 mM (≈ 6400 µg/mL) |
| CCCc1ncnc2c(O)cccc12 | 1.2 mM (≈ 226 µg/mL) |
| OCc1ccccc1Br | 6.95 mM (≈ 1300 µg/mL) |
| CCC(O)C(Cl)(Cl)Cl (stereo not drawn) | 113 mM (≈ 20000 µg/mL) |
| O=C(O)C(Br)=C(Br)Br | 43.7 mM (≈ 13500 µg/mL) |
| CC1CCC2(CCC(C)O2)O1 (stereo not drawn) | 356 mM (≈ 55600 µg/mL) |
| c1ccc2c3c(ccc2c1)Nc1ccc2ccccc2c1S3 | 0.000132 mM (≈ 0.0396 µg/mL) |
| C/C=C\CC1(C/C=C/C)C(=O)NC(=O)NC1=O | 6.35 mM (≈ 1500 µg/mL) |
| COc1ncnc2nccnc12 | 77.1 mM (≈ 12500 µg/mL) |
| CC(=O)Nc1ccc(/C=N/NC(N)=S)cc1 | 0.372 mM (≈ 88 µg/mL) |
| CSc1ncnc2nccnc12 | 4.32 mM (≈ 769 µg/mL) |
| O=C(O)C1=CCCCC1 | 55.5 mM (≈ 7000 µg/mL) |
| Nc1nc2c(O)cccc2s1 | 12 mM (≈ 2000 µg/mL) |
| C=CCC(C(=O)O)C(C)C(=O)O (stereo not drawn) | 87.1 mM (≈ 15000 µg/mL) |
| CSc1ncc2nccnc2n1 | 17.5 mM (≈ 3130 µg/mL) |
| CCC1(CC)C(=O)NC(=O)N=C1N | 40.1 mM (≈ 7350 µg/mL) |
| Cc1cc(C)c(OCC(=O)O)c(Br)c1 | 0.753 mM (≈ 195 µg/mL) |
| CN1C(=O)COc2ccccc21 | 7.17 mM (≈ 1170 µg/mL) |
| O=C(O)Cc1ccccc1C(=O)O | 88.8 mM (≈ 16000 µg/mL) |

| Compound | solubility |
| --- | --- |
| O=c1nc[nH]c2nc(-c3ccccc3)c(-c3ccccc3)nc12 | 0.666 mM (≈ 200 µg/mL) |
| Brc1ccc2c(c1)Sc1ccccc1N2 | 0.000773 mM (≈ 0.215 µg/mL) |
| CCc1nc2cnc(O)nc2nc1CC | 5.44 mM (≈ 1110 µg/mL) |
| O=C(O)COc1cccc(Cl)c1 | 6.38 mM (≈ 1190 µg/mL) |
| Cc1nc(C)c(C(=O)O)cc1C(=O)O | 1.55 mM (≈ 303 µg/mL) |
| CCCCCCCCOC(=O)c1cc(O)c(O)c(O)c1 | 0.127 mM (≈ 36 µg/mL) |
| N#Cc1ccc(C(=O)O)cc1 | 8.16 mM (≈ 1200 µg/mL) |
| Cc1ncnc2c(O)cccc12 | 2.5 mM (≈ 400 µg/mL) |
| C=CCCCN=C=S | 1.26 mM (≈ 160 µg/mL) |
| C=CCOc1ccccc1C(N)=O | 5.93 mM (≈ 1050 µg/mL) |
| S=C=NCCc1ccccc1 | 0.674 mM (≈ 110 µg/mL) |
| O=C1CC(c2ccccc2)CC(=O)C1[N+](=O)[O-] (stereo not drawn) | 21.4 mM (≈ 5000 µg/mL) |
| O=C(O)CCNC(=O)Nc1ccc([N+](=O)[O-])cc1 | 1.97 mM (≈ 500 µg/mL) |
| Cc1ccc(OCC(=O)O)cc1 | 7.22 mM (≈ 1200 µg/mL) |
| NNC(=O)c1cccnc1 | 729 mM (≈ 100000 µg/mL) |
| O=C1CCCCCN1C(=O)c1ccccc1 | 6.81 mM (≈ 1480 µg/mL) |
| CN(C)c1nc2c[nH]cnc-2n1 | 40.9 mM (≈ 6670 µg/mL) |
| CC1(c2ccccc2)C(=O)NC(=O)NC1=O | 3.48 mM (≈ 760 µg/mL) |
| O=CC(=O)Cc1ccccc1 | 6.75 mM (≈ 1000 µg/mL) |
| COc1ccc(C(=O)O)cc1C(=O)O | 0.765 mM (≈ 150 µg/mL) |
| COc1ccc(CO)cc1 | 14.5 mM (≈ 2000 µg/mL) |
| CC=C(CCCC)C(=O)NC(N)=O | 1.63 mM (≈ 300 µg/mL) |
| Cc1cc(C(O)(c2ccc(N)cc2)c2ccc(N)cc2)ccc1N | 0.939 mM (≈ 300 µg/mL) |
| O=S(CCCl)CCCl | 68.5 mM (≈ 12000 µg/mL) |
